Source: patent publication US20110104121A1, “Female Reproductive Tract and Anal Prophylaxes” (priority 2008, published 2011)

Columns and labels:
female macrophages = test: LPS-induced TNFalpha secretion by female macrophages; format: cell-based
vaginal cells = test: relative mRNA expression of SLPI and defensins in vaginal cells; format: cell-based; settings: for relative vaginal alpha defensin 2 expression: saline control printed −7.5×10^4; for relative mRNA expression of beta defensin 1 in vaginal cells: saline control ~1.1×10^8
Description: (§1) The analysis of SERM activity is carried out using fresh hysterectomy tissues, wherein epithelial cells, neutrophils, NK cells and macrophage/dendritic cells (MAC/DC), which are known to be responsive in culture to sex hormones, are recovered. Using conventional assays, SERMs (e.g., Tamoxifen, bazedoxifene acetate, lasofoxifene and raloxifene, etc) are analyzed for their ability to regulate immunological endpoints which have been identified as optimal for protection against HIV. […] Similarly, ICI 182,780 increased relative vaginal SLPI mRNA levels by 26-fold over saline controls. Furthermore, ICI 182,780, tamoxifen, and Y134 increased relative uterine alpha defensin 2 expression (˜3×10^5, ˜4×10^5, and −1.2×10^6, respectively) compared to ˜0.2×10^5 in the saline control. ICI 182,780, Y134, and PHTPP were also found to increase relative vaginal alpha defensin 2 expression (˜2.4×10^5, ˜4×10^5, and ˜1.6×10^5, respectively) compared to −7.5×10^4 in the saline control.

uterine cells = test: relative mRNA expression of SLPI and defensins in uterine cells; format: cell-based; settings: for relative uterine alpha defensin 2 expression: saline control ~0.2×10^5; for relative beta defensin 4 mRNA expression in uterine cells: saline control ~0.4×10^5
Description: as §1

[1] = tested on: primary uterine epithelial cells; test: MIP3 alpha secretion by primary uterine epithelial cells, ELISA; format: cell-based, mice; settings: 20 hours, 37° C., vs media control
Description: FIG. 1 depicts levels of MIP3 alpha secretion by primary uterine epithelial cells at 20 hours after exposure to estrogen, ICI […] or the SERMs indicated. P value is comparison to media control.
Indeed, FIG. 1 summarizes the effects of estradiol (estrogen) and four known SERMS on the secretion of MIP3 alpha (aka CCL20), a known potent endogenous antimicrobial peptide, by primary uterine epithelial cells in culture. Epithelial cells were isolated from the uteri of intact mice by enzymatic digestion prior to incubation at 37° C. in the presence or absence of known SERMS for 20 hours. Following incubation in 96-well plates, media was collected and assayed by ELISA for MIP3 alpha.

[2] = tested on: primary uterine epithelial cells; test: mouse KC (IL8) secretion from primary uterine epithelial cells; format: cell-based; settings: 24-hour treatment
[3] = tested on: uterine stromal fibroblasts; test: HGF secretion by uterine stromal fibroblasts, ELISA; format: cell-based, human
Description: (§2) Materials and Methods. FRT mucosal tissue was obtained following surgery from women who underwent hysterectomies. Tissues used in this study were distal to the sites of pathology and were determined to be unaffected by disease upon inspection by a trained pathologist. Tissues were transported from Pathology and procedures to isolate stromal fibroblasts began within 2 hours of surgery.
Tissues from the Fallopian tube, uterus, cervix, and ectocervix were dispersed into epithelial and stromal cell fractions by enzymatic digestion (Fahey, et al. (1998) Immunol. Invest. 27:167-180; Meter, et al. (2005) Fertil. Steril. 84:191-201). Briefly, tissues were minced under sterile conditions into 1-2 mm fragments and then digested at 37° C. for 1 hour using a “PHC” enzyme mixture that contained final concentrations of 3.4 mg/ml pancreatin (Gibco Life Technologies, Rockville, Md.), 0.1 mg/ml hyaluronidase (Worthington Biochemical Corporation, Freehold, N.J.), 1.6 mg/ml collagenase (Worthington) and 2 mg/ml D-glucose (Sigma, St Louis, Mo.) in Hank's balanced salt solution (Gibco, Invitrogen). This procedure was chosen to maximize digestion of the extracellular matrix, as verified by microscopy and by hematoxylin and eosin staining of frozen sections after digestion, while minimizing digestion of cell surface antigens as determined by flow cytometry. After incubating in this enzyme cocktail, cells and tissue fragments were collected, washed with complete media consisting of DMEM/F-12 without phenol red (Gibco) supplemented with 10% heat-inactivated fetal calf serum (Hyclone, Logan, Utah), 2 mM fresh L-glutamine, 25 mM HEPES, […] primocin (InvivoGen, San Diego, Calif.) and separated from tissue aggregates by sedimentation for 5 minutes. Medium containing predominantly single cells and small epithelial cell glands were removed and dispersed through a 250 μm nylon mesh screen (Small Parts, Miami Lake, Fla.). […]
(§3) Stromal cell fractions were washed, resuspended in complete media, and cultured in T75 flasks. […] When confluent, the cells in the flask were counted and sub-cultured into 24 well culture plates (Fisher Scientific, Pittsburgh, Pa.). […]
Once the cells reached confluence, they were cultured in complete media with 10% stripped FBS (Hyclone). […] In related experiments, when cell proliferation was analyzed, harvested from culture wells and counted by Coulter Counter. […] Viability of the cultures was determined using trypan blue dye exclusion and manual counting of live vs. dead cells on a hemocytometer. […]

[4] = tested on: ectocervix stromal fibroblasts; test: HGF secretion by ectocervix stromal fibroblasts, ELISA; format: cell-based, human; settings: estradiol
Description: as §2
(§4) Tissues from the Fallopian tube, uterus, cervix, and ectocervix were dispersed into epithelial and stromal cell fractions by enzymatic digestion (Fahey, et al. (1998) Immunol. Invest. 27:167-180; Meter, et al. (2005) Fertil. Steril. 84:191-201). […] This procedure was chosen to maximize digestion of the extracellular matrix, as verified by microscopy and by hematoxylin and eosin staining of frozen sections after digestion, while minimizing digestion of cell surface antigens as determined by flow cytometry. […]
as §3
(§5) Once the cells reached confluence, they were cultured in complete media with 10% stripped FBS (Hyclone). […] In related experiments, when cell proliferation was analyzed, harvested from culture wells and counted by Coulter Counter. […]

[5] = tested on: cervix stromal fibroblasts; test: HGF secretion by cervix stromal fibroblasts, ELISA; format: cell-based, human; settings: estradiol
Description: as §2, §4, §3, §5

[6] = tested on: Monocytes-derived Dendritic cells (MDDCs); test: surface receptor expression on monocyte-derived dendritic cells, flow cytometry; format: cell-based, human
Description: Materials and Methods. Uterine epithelial cell line (ECC-1) was cultured according to established methods to establish cellular polarity with apical and basolateral compartments (Schaefer, et al. (2004) Immunology 112:428-436). The formation of tight junctions by the epithelial cell monolayer was routinely monitored by measurement of transepithelial resistance (TER) (Richardson, et al. (1995) Biol. Reprod. 53:488-498). […] The pooled media was centrifuged for 5 minutes at 10,000 g and stored at −80° C. for use in subsequent studies.
Peripheral blood mononuclear cells (PBMC) were obtained from residues of platelet pheresis according to known methods (Dietz, et al. (2006) Transfusion 46:2083-2089). Monocytes were subsequently enriched with Rosette Sep reagent (StemCell, Vancouver, BC). Blood specimens were from healthy adult males. Monocytes-derived Dendritic cells (MDDCs) were in vitro generated with GM-CSF (50 ng/ml) and IL-4 (50 ng/ml) (PeproTech Inc, Rocky Hill, N.J.) (Sallusto Lanzavecchia (1994) J. Exp. Med. 179:1109-1118). MDDCs were differentiated for 7 days in the presence or absence of 24-hour conditioned medium (1:1 dilution) obtained from ECC-1. In some experiments TGF-beta receptor 1 blocker, SB431542 (10 μM; Tocris Cookson, Inc., St. Louis, Mo.) (Eriksson, et al. (2006) Am. J. Reprod. Immunol. 56:321-328; Shen, et al. (2007) Clin. Exp. Immunol. 149(1):155-61) was simultaneously added with ECC-1 CM for the entire duration of the differentiation. As positive control for TGF-beta effects on MDDCs, experimental conditions were included in which MDDCs were differentiated with recombinant human TGF-beta1 at three different concentrations (0.1, 1 and 10 ng/mL) in the presence or absence of SB431542. Following 7 days of culture, cells were harvested, washed and subsequently used for flow cytometry analyses.
Following six days of in vitro differentiation, surface staining of MDDCs was performed with the following fluorochrome-labeled monoclonal antibodies: CD1a (HI149), CD14 (61D3), from Ebioscience (San Diego, Calif.); and CD163 (215927), CCR5 (45531), CXCR4 (12G5), DC-SIGN (120507) from R&D Systems (Minneapolis, Minn.). Matched isotype controls for the antibodies were used to control for non-specific binding. Following antibody staining, cells were washed with staining buffer and fixed with 2% methanol-free paraformaldehyde in 1×PBS (2% PFA), followed by analysis with a Becton Dickinson FACS CALIBUR (San Jose, Calif.). The acquired FACS data were analyzed by CELL QUEST (BD Biosciences).
Statistical analysis was performed using two-way analysis of variance (ANOVA) ([…] Prism Version 5.0; […] Software Inc., San Diego, Calif.). A value of P<0.05 was considered significant.

CCR5-tropic HIV = settings: in vitro; read-out: 50% inhibitory concentration, CCR5-tropic HIV infectivity; cited from earlier work
[7] = Table 4, control vehicle, N = 3
[8] = Table 5, control vehicle, N = 3

C[C@]12CC[C@@H]3c4ccc(O)cc4C[C@@H](CCCCCCCCC[S+]([O-])CCCC(F)(F)C(F)(F)F)[C@H]3[C@@H]1CC[C@@H]2O (stereo partly shown) [ICI 182,780]
TNFalpha (% of Control) (female macrophages; [7]): 111.87 ± 15.68 % of Control | increase in relative vaginal SLPI mRNA levels over saline controls (vaginal cells): 26 fold | relative mRNA expression of beta defensin 2 in vaginal cells (vaginal cells): not significantly affected | relative vaginal alpha defensin 2 expression (vaginal cells): ~2.4×10^5 | relative mRNA expression of beta defensin 1 in vaginal cells (vaginal cells): ~2.15×10^8 | increase in relative uterine SLPI mRNA levels over saline controls (uterine cells): ~3×10^5 | relative uterine alpha defensin 2 expression (uterine cells): ~3×10^5 | MIP3 alpha secretion [1]: significantly increased | secretion of mouse KC (IL8) [2]: significantly increased

CC/C(=C(\c1ccccc1)c1ccc(OCCN(C)C)cc1)c1ccccc1 [tamoxifen]
relative mRNA expression of beta defensin 2 in vaginal cells (vaginal cells): not significantly affected | relative beta defensin 4 mRNA expression in vaginal cells (vaginal cells; saline control ~1×10^7): ~2.1×10^8 | relative mRNA expression of beta defensin 1 in vaginal cells (vaginal cells): ~1.75×10^8 | increase in relative uterine SLPI mRNA levels over saline controls (uterine cells): ~2.5×10^5 | relative uterine alpha defensin 2 expression (uterine cells): ~4×10^5 | relative beta defensin 4 mRNA expression in uterine cells (uterine cells): ~6×10^5 | MIP3 alpha secretion [1]: marginal effect | secretion of mouse KC (IL8) [2]: marginal effect

Oc1ccc(-c2c(-c3ccccc3)nn3c(C(F)(F)F)cc(C(F)(F)F)nc23)cc1 [PHTPP]
TNFalpha (% of Control) (female macrophages; [8]): 79.96 ± 6.43 % of Control | relative mRNA expression of beta defensin 2 in vaginal cells (vaginal cells): not significantly affected | relative vaginal alpha defensin 2 expression (vaginal cells): ~1.6×10^5 | increase in relative uterine SLPI mRNA levels over saline controls (uterine cells): ~8×10^5 | relative beta defensin 4 mRNA expression in uterine cells (uterine cells): ~8×10^5 | relative mRNA expression of beta defensin 2 in uterine cells (uterine cells; saline control ~1×10^5): ~1.55×10^8 | relative mRNA expression of beta defensin 1 in uterine cells (uterine cells; saline control ~1.1×10^6): ~1.05×10^8 | MIP3 alpha secretion [1]: marginal effect | secretion of mouse KC (IL8) [2]: marginal effect

C[C@]12CC[C@@H]3c4ccc(O)cc4CC[C@H]3[C@@H]1CC[C@@H]2O [E2, 17β-estradiol]
TNFalpha (% of Control) (female macrophages; E2 0.001 nM, control no E2, N = 4): 98.35 ± 3.19 % of Control | TNFalpha (% of Control) (female macrophages; E2 0.01 nM, control no E2, N = 4): 97.72 ± 6.89 % of Control | TNFalpha (% of Control) (female macrophages; E2 0.1 nM, control no E2, N = 4): 94.68 ± 11.62 % of Control | TNFalpha (% of Control) (female macrophages; [7]): 73.96 ± 3.00 % of Control | TNFalpha (% of Control) (female macrophages; [8]): 73.96 ± 3.00 % of Control | uterine stromal fibroblast HGF secretion ([3]; 10^−7 M or 10^−8 M estradiol, within 48 hours): significantly increased | estradiol response of HGF at 24 hours, responding patients ([3]; 24 hours after addition of estradiol): two out of five patients | cell numbers, control vs estradiol-treated wells ([3]; counted at 48-hour intervals): did not differ | HGF secretion, six days vs two days of exposure ([3]; estradiol 2, 4, 6 days, CM collected at 48 hour intervals): three times more HGF | secretion of HGF from ectocervix stromal fibroblasts [4]: no effect | MIP3 alpha secretion [1]: no effect | HGF secretion by cervix stromal fibroblasts [5]: did not increase | DC-SIGN expression on immature DCs [6]: increases

B1: Lactobacillus-derived CV-N: HIV inhibitor Cyanovirin-N produced by engineered vaginal Lactobacillus (protein, UniProt P81180 1-101, looked up)
Cyanovirin-N: LGKFSQTCYNSAIQGSVLTSTCERTNGGYNTSSIDLNSVIENVDGSLKWQPSNFIETCRNTQLAGSSELAAECKTRAQQFVSTKINLDDHIANIDGTLKYE
modifications: produced in engineered Lactobacillus
IC50 (CCR5-tropic HIV): 0.3 nM
